Reference: patent US12611475B2, “System for implantation by sterilisation techniques” (Universidade de Santiago de Compostela, priority 2020, dated 2026)
Where a name gives a salt, the structure may show the parent alone.

Key:
[1] = system: Bacillus pumilus spores (ATCC 27142); conditions: 150 ppm H2O2, CO2 39° C., 100 bar, continuous flow 10 g/min, 15 minutes; 10^6 spores
Method: Mask cutouts (4 cm 2) were inoculated with 10^6 spores contained in 100 μL of aqueous solution. The samples were placed inside sterilization bags and heat-sealed to be placed in a 600 mL stainless steel autoclave (Novagenesis, Novasterilis Inc.) provided with lower mechanical agitation. H2O2 was added as an additive at the bottom of the autoclave to avoid direct contact with the masks at a content of 150 ppm. The system is heated to 39° C. and pressurized with a CO2 flow to reach 100 bar. A continuous flow of CO2 of 0 to 10 g/min through the autoclave was maintained for a period of 15 minutes. Subsequently, the system is depressurized to reach atmospheric pressure at a rate of 14.3 bar/min.
The effectiveness of the sterilization method was evaluated by sowing tryptone-soybean agar culture medium and subsequent counting of formed colonies.

[2] = X-ray diffraction and infrared spectrum after treatment; format: physicochemical; conditions: 1200 ppm hydrogen peroxide, supercritical CO2 39° C., 140 bar, 2.5 and 2.5 hours; versus untreated
Method: FIG. 4. X-ray diffraction spectrum (A) and infrared spectrum (B) of vancomycin hydrochloride i) untreated and (ii) after addition of 1200 ppm hydrogen peroxide and processing with supercritical CO2 at 39° C., 140 bar during batch stages and continuous compressed CO2 flux for 2.5 and 2.5 hours, respectively. Caption: vancomycin untreated hydrochloride (black), vancomycin treated hydrochloride (gray)

Compound	sterility level reached on FFP3 mask cutouts [1]	crystalline form after treatment [2]
OO [Test H2O2, hydrogen peroxide]	SAL-6	–
CN[C@H](CC(C)C)C(=O)N[C@H]1C(=O)N[C@@H](CC(N)=O)C(=O)N[C@H]2C(=O)N[C@H]3C(=O)N[C@H](C(=O)N[C@H](C(=O)O)c4cc(O)cc(O)c4-c4cc3ccc4O)[C@H](O)c3ccc(c(Cl)c3)Oc3cc2cc(c3O[C@@H]2O[C@H](CO)[C@@H](O)[C@H](O)[C@H]2O[C@H]2C[C@](C)(N)[C@H](O)[C@H](C)O2)Oc2ccc(cc2Cl)[C@H]1O [Vancomycin hydrochloride, vancomycin hydrochloride]	–	not altered
